Source: patent US20220315574A1, “Beta-Arrestin-Modulating Compounds and Methods of Using Same” (Duke University, priority 2019, published 2022)
Structures can show the parent of a compound that is named as a salt.

Legend:
[1] = target: T1, βarr2 recruitment to agonist-activated β2V2R (Homo sapiens, UniProt P32121); experiment: DiscoveRx PathHunter β-arrestin recruitment assay in U2OS cells; format: cell-based; conditions: series of compound concentrations, 30 min pretreatment, isoproterenol dose-response
T1 construct: host or cells: U2OS
Method: β-arrestin recruitment to the agonist-activated receptor (02V2R) was measured using the DiscoveRx PathHunter β-arrestin assay (Ahn, S. et al. Allosteric “beta-blocker” isolated from a DNA-encoded small molecule library. Proc Natl Acad Sci U SA 114, 1708-1713, doi:10.1073/pnas.1620645114 (2017)). […] Agonist-stimulated recruitment of βarr2 to the receptor results in the formation of functionally active β-gal enzyme. Addition of substrate generates a chemiluminescence signal directly correlated to the extent of recruitment. U2OS cells co-expressing β2V2R and βarr2 were plated in 96-well clear-bottomed plates at a density of 25,000 cells per well (80 μL per well), 24 hours prior to compound treatment. On the day of experiment, cells were first treated with compound or vehicle for 30 min, followed by agonist (Iso) stimulation for 60 min at 37° C. Cells were then treated with PathHunter™ detection reagents for 90 min at 37° C., and luminescence signals were measured using a CLARIOstar microplate reader (BMG Labtech Inc., Cary, N.C.).

βarr1 = target: T2, βarr1 (Rattus norvegicus, UniProt P29066); experiment: Binding affinity (Kd) by ITC / thermal shift; conditions: Cmpd-30 by ITC; other three by combination of ITC and thermal shift; read-out: Kd (dissociation constant), βarr1
T2 construct: made in house
Method: A high-throughput differential scanning fluorimetry-based thermal shift screen was developed to identify potential βarr small-molecule modulators present in the collection of structurally diverse, drug-like small-molecule compound library described above. The screen was performed using the StepOnePlus™ Real-Time PCR System (Applied Biosystems, Foster City, Calif.). Melting temperature changes were monitored with the use of a reporter fluorescent probe, SYPRO Orange (Thermo Fisher Scientific). Proteins were buffered in a 20 mM HEPES pH 7.5, 100 mM NaCl solution. All reactions were set up in a 96-well plate at final volumes of 20 μl. […] The temperature was raised with a step of 0.5° C. per 30 second from 25° C. to 99° C. and fluorescence readings were taken at each interval. Melting curves were directly exported from the instrument and were analyzed using Applied Biosystems® Protein Thermal Shift™ Software. Melting temperature (Tm) was calculated by plotting the first derivative of the fluorescence emission as a function of temperature [−dF/dT]. […]
ITC measurements were made using the MicroCal iTC200 system (MicroCal, Malvern, Pa.). […] Data were analyzed using MicroCal Origin software program to obtain association constant (Ka=1/Kd), stoichiometry (N), and thermodynamic parameters such as enthalpy (ΔH) and entropy (ΔS) of binding.

ERK2-βarr2 complex = ERK2-βarr2 complex (Rattus norvegicus, UniProt P29067); experiment: Pull-down of 3×Flag-ERK2 with βarr2; format: binding; conditions: series of concentrations of compound
Method: Given this surprising result on the ability of Cmpd-30 to activate ERK βarr1/2-dependent but receptor independent manner, next it was determined whether βarr2 and ERK2 can physically interact in the presence of Cmpd-30 by a pull-down assay. Purified 3×Flag-ERK2 was incubated with βarr2 in the presence of a series of concentrations of Cmpd-30 or vehicle.

wild-type mouse T cells = format: cell-based; conditions: total T cells and CD4/CD8 subpopulations
Method: Chemotaxis assays were conducted similarly to those previously described Smith, J. S. et al. C-X-C Motif Chemokine Receptor 3 Splice Variants Differentially Activate Beta-Arrestins to Regulate Downstream Signaling Pathways. Mol Pharmacol 92, 136-150, doi:10.1124/mol.117.108522 (2017)). Briefly, mouse leukocytes, obtained by passing cells isolated from the spleen and subjected to erythrocyte lysis through a 70-μm filter, were suspended in RPMI 1640 medium containing 5% FBS. For the assay, 1×10^6 cells in 100 μl of medium were added to the top chamber of a 6.5 mm diameter, 5-μm pore polycarbonate Transwell insert (Costar). Subsequently, cells were treated with βarr small-molecule modulators or vehicle for 30 min, followed by increasing concentrations of CCL19 suspended in 600 μL of the medium in the bottom chamber for 2 hours at 37° C. T cells migrated to the bottom of chamber were recovered, resuspended, washed, stained with a Live/Dead marker (Aqua Dead, ThermoFisher) and antibodies to cell surface markers (CD3, CD4, CD8, and CD45), and fixed with paraformaldehyde. The number of migrated T cells was measured by flow cytometric analysis with a BD LSRII Flow cytometer. […] A 1:10 dilution of input cells was similarly analyzed. Specific T cell migration was calculated by dividing the number of migrated cells by the number of input cells.

T1 sequence (P32121 whole entry): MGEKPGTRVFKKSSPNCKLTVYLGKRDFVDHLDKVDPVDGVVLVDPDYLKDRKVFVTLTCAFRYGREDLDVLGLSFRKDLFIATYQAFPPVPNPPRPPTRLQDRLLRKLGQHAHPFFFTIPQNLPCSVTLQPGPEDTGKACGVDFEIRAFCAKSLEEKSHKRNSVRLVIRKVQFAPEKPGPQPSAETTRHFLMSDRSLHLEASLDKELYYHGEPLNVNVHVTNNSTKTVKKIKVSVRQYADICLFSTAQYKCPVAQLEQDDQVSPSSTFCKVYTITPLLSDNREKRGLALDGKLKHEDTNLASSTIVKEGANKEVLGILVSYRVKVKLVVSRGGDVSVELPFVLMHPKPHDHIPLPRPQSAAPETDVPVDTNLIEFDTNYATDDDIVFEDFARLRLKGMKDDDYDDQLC
T2 sequence (P29066 whole entry): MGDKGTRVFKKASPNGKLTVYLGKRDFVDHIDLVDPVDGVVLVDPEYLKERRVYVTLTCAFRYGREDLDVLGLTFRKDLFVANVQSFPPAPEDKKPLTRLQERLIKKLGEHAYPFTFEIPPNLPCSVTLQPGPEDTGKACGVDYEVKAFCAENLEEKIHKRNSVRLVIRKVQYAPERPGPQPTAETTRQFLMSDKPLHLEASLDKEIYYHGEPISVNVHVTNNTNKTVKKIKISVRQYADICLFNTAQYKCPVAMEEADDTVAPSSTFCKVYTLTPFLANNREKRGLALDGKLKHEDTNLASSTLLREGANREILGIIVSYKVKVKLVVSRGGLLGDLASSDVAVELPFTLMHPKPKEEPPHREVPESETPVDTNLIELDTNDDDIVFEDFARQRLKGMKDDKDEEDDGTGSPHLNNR
Sequence of ERK2-βarr2 complex (P29067 whole entry): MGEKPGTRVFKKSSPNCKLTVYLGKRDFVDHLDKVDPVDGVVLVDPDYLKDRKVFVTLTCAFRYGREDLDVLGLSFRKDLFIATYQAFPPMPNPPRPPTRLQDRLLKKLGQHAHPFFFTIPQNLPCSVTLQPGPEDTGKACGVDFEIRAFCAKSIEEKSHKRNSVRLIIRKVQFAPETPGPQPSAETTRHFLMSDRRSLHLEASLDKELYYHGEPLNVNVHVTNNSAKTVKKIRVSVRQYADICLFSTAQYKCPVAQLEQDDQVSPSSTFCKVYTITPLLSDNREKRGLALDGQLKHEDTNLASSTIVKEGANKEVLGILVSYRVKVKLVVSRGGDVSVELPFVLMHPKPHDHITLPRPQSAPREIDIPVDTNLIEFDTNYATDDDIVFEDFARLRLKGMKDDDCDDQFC
Sequence of ERK2-βarr2 complex (P28482 whole entry partner): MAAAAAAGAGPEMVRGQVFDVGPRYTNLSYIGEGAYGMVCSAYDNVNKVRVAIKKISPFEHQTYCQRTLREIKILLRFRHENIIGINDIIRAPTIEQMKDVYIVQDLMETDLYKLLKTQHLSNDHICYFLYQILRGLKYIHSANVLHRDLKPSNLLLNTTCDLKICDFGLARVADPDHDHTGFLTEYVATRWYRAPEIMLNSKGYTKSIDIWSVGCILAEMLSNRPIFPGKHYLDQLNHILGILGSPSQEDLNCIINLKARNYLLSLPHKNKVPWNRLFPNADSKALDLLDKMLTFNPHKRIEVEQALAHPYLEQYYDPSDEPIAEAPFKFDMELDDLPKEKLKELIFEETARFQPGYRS

SMILES	maximal agonist induced βarr recruitment response [1]	Kd (βarr1)	ERK2-βarr2 complex formation (ERK2-βarr2 complex)	CCL19-induced chemotaxis of T cells (wild-type mouse T cells)
C=C1C(=O)OC2CC3(C)OC3CC/C(C)=C\C(OC(C)=O)C12 (stereo not shown) [Cmpd-64, [(8Z)-3,8-dimethyl-12-methylidene-13-oxo-4,14-dioxatricyclo[9.3.0.03,5]tetradec-8-en-10-yl] acetate]	significantly diminished			
CN(C)c1n/c(=N/Cc2ccco2)ss1 [Cmpd-30, 5-(furan-2-ylmethylimino)-N,N-dimethyl-1,2,4-dithiazol-3-amine;hydrobromide]	significantly diminished	9.3 nM	forms a complex in vitro with βarr2 in a Cmpd-30-dependent manner	significantly impair
C=C1C(=O)C23[C@H](O)C1CC[C@H]2[C@]12COC3(O)[C@@H](O)[C@@H]1C(C)(C)CC[C@@H]2O [Cmpd-5, (1R,2S,10S,11R,15S,18R)-9,10,15,18-tetrahydroxy-12,12-dimethyl-6-methylidene-17-oxapentacyclo[7.6.2.15,8.01,11.02,8]octadecan-7-one]	significantly diminished	233 nM		
